Assay results: patent US20240285497A1, “METHOD FOR EVALUATING AN ABILITY OF A TEST SAMPLE TO TRIGGER A FOREIGN BODY REACTION IN THE SKIN, A METHOD FOR SCREENING A SUBSTANCE HAVING AN ABILITY TO INHIBIT A FOREIGN BODY REACTION IN THE SKIN, AND AN AGENT FOR INHIBITING A FOREIGN BODY REACTION IN THE SKIN” (priority 2021, published 2024)

What was measured:
[1] = test system: XRE-NLuc::HaCaT cells; assay: in vitro; conditions: read-out: LC50; XRE-NLuc::HaCaT cells, median lethal concentration
Procedure: After the above-described incubation for 24 hours, the number of cells in each well was counted by a colorimetric method based on the degradation of tetrazolium salt (WST-1) by mitochondrial dehydrogenase in viable cells. Specifically, 3 μL of Premix WST-1 (Product Name “Premix WST-1 Cell Proliferation Assay System”; Takara Bio Inc., Shiga, Japan; Catalogue No.: MK400) was added to each well of 96 well plates, and then the cells were cultured for 1 hour at 37° C., 5% CO2. Thereafter, 93 μL of cell culture supernatant was removed from each well to measure the absorbance of the supernatant in each well. The removed supernatants were transferred to transparent 96 well plates, and then the absorbance at 450 nm (A450) and, as a reference wavelength, the absorbance at 670 nm (A670) were measured using iMark microplate reader (Bio-Rad; Catalogue No.: 168-1130JA). A value (A450-A670) was obtained by subtracting the absorbance at 670 nm (A670) from the absorbance at 450 nm (A450). The relative viable cell count (%) was expressed as a relative value with the value (A450-A670) obtained for the negative control as 100%.
The ability of each test sample to trigger a foreign body reaction was evaluated using XRE-NLuc::HaCaT cells in the same manner as in Experiment 1-2, except that I3C (Indole-3-carbinol, CAS RN: 700-06-1), ITE (2-(1′H-indole-3′-carbonyl)-thiazole-4-carboxylic acid methyl ester, CAS RN: 448906-42-1), and Indirubin (CAS RN: 479-41-4) were used instead of FICZ as test samples and the amount of each test sample added to the DMEM medium was appropriately changed.

[2] = test system: matrix metalloprotease 9 mRNA; assay: MMP9 mRNA expression in HaCaT cells contacted with FICZ, quantitative PCR; assay type: cell-based, human; conditions: 24 hours
Procedure: First, HaCaT cells (CLI; Catalogue No.: 300493) were suspended in a DMEM medium at the density of 1×10^5 cell/mL, and 100 μL of the thus obtained suspension was added to each well of white 96 well plates (Thermo Fisher Scientific, MA, U.S.A.; Catalogue No.: 136102) so that the number of the cells in each well was 10,000 cells/well. In accordance with a conventional method, the cells were incubated at 37° C. for 24 hours in the presence of 5% CO2. Thereafter, the DMEM medium was removed, and 100 μL of a new DMEM medium containing FICZ at a predetermined concentration (i.e., 5 nM, 50 nM, 500 nM, and 5,000 nM) was added, followed by further incubation for 24 hours at 37° C. and 5% CO2. Meanwhile, negative controls were prepared by adding 100 μL of a DMEM medium containing no FICZ instead of the DMEM medium containing FICZ, which were also incubated for 24 hours at 37° C. and 5% CO2. […]
Quantitative PCR was carried out by using THUNDERBIRD Next SYBR qPCR Mix (Toyobo Co., Ltd., Osaka, Japan; Catalogue No. QPX-201) and StepOne Real-Time PCR System (Thermo Fisher Scientific, MA, USA). […] The reaction solution was used for quantitative PCR. Based on Ct (cycle threshold) value obtained by quantitative PCR, an amount of mRNA of each target gene was obtained. […]

6-formylindolo[3,2-b] carbazole [FICZ]
CC50 [1]: > 5 µM
concentration necessary to observe a significant increase in the expression level of MMP9 mRNA [2]: about 5000 nM
expression level of MMP9 mRNA, dependence on concentration ([2]; FICZ 5-5,000 nM): increased along with the concentration of FICZ
